Values quoted from earlier work as cited in patent US20130004575A1, “CONTROLLED RELEASE FORMULATIONS USING INTELLIGENT POLYMERS” (VALEANT INTERNATIONAL (BARBADOS) SRL, priority 1997, published 2013).

Details: room temperature

solubility of topiramate in water: about 9.8 mg/mL
Compound: CC1(C)O[C@@H]2[C@@H](CO[C@@]3(COS(N)(=O)=O)OC(C)(C)O[C@@H]23)O1 [topiramate, 2,3:4,5-bis-O-(1-methylethylidene)-β-D-fructopyranose sulfamate]
